This note sets out measurements from PMC10746212 (mBio, 2023).

Molecules are shown by their SMILES.

The target of the test is T1, MdrA (rMdrA) (Brucella abortus, UniProt Q2YN99).
T1 construct: gene BAB1_0783
The conditions noted are these: 192 bp btaE promoter fragment, rMucR present, pH 7.4, room temperature; inhibitor of MdrA displacement activity; no direct binding measured.

T1 sequence (Q2YN99 1-199 limits assumed): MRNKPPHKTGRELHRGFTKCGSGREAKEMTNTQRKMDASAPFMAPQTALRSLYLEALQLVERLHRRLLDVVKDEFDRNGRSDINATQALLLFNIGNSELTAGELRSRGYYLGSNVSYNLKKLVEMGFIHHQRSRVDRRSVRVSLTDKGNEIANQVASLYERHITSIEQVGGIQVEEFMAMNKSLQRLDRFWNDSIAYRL

Take `C[C@H](CCC(=O)O)[C@H]1CC[C@H]2[C@@H]3CC[C@@H]4C[C@H](O)CC[C@]4(C)[C@H]3C[C@H](O)[C@]12C` [deoxycholate]: the “EMSA, displacement of MucR from 32P-labelled btaE promoter DNA by rMdrA” value is “MdrA can no longer displace MucR from the btaE promoter when deoxycholate”.
